From patent US7319109B2, “Farnesoid X receptor agonists” (Smith Kline Beecham Corporation, priority 2002, dated 2008)

The compounds below were run against T1, Human FXRα Ligand Binding Domain (FXRα LBD) (Homo sapiens, UniProt Q96RI1) (assay: FXR Affinity Binding Assay: ligand mediated cofactor peptide (SRC-1 LCD2, 676-700) interaction, time resolved fluorescence). Details: FXRα LBD-APC / europium labeled SRC-1 peptide, TRF signal, at least 2 hours at room temperature; read-out: Activity (pEC50) (converted).
T1 construct: polyhistidine (N); made in house; host or cells: E. coli BL21 (DE3), pRSET-A vector
T1 sequence (Q96RI1 222-472 isoform Q96RI1-2): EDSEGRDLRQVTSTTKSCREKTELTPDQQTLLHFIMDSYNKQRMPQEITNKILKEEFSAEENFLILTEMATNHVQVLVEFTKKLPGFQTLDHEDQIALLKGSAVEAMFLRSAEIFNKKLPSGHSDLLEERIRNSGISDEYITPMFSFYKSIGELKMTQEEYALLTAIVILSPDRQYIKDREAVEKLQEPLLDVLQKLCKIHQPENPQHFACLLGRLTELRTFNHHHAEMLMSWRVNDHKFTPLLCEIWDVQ
Protocol: Determination of a ligand mediated cofactor peptide interaction to quantify ligand binding to the nuclear receptor Farnasoid X Receptor (FXR). The method measures the ability of putative ligands to modulate the interaction between the purified bacterial expressed FXRα (LBD) and a synthetic biotinylated peptide based on residues 676-700 of SRC-1(LCD2, 676-700). […] Detection of the associated complex is measured by time resolved fluorescence (TRF). The purified LBD of FXR is labeled with biotin then mixed with stoichiometric amounts of APC labeled streptavidin (Molecular Probes). The biotinylated peptide is then mixed with a ½ stoichiometric amount of europium labeled streptavidin (Wallac Inc). Each is then blocked with a 5 fold excess of biotin and allowed to equilibrate for 15 min. Equimolar amounts of receptor and peptide are mixed together and allowed to equilibrate for at least 30 min prior to the addition to either a variable or constant concentrations of the sample for which the affinity is to be determined. After equilibration, the time-resolved fluorescent signal is quantitated using a fluorescent plate reader. The affinity of the test compound is estimated from a plot of fluorescence versus concentration of test compound added.
Ligands that promote the complex formation induce a concentration-dependent increase in time-resolved fluorescent signal.
Human FXRα Ligand Binding Domain (FXRα LBD) was expressed in E.coli strain BL21 (DE3) as an amino-terminal polyhistidine tagged fusion protein. Expression was under the control of an IPTG inducible T7 promoter. DNA encoding this recombinant protein was subcloned into the pRSET-A expression vector (Invitrogen). The coding sequence of Human FXRα LBD was derived from Genbank accession number U 68233 (amino acids 222 to 472).
Routinely, 30-40 g cell paste (equivalent to 2-3 liters of the fermentation batch) was resuspended in 200-250 mL TBS, pH 7.2 (25mM Tris, 150 mM NaCl). Cells were lysed by passing 3 times through a French Press and cell debris was removed by centrifugation (30 minutes, 20,000 g, 4° C.). The cleared supernatant was filtered through course pre-filters, and TBS, pH 7.2, containing 500 mM imidazole was added to obtain a final imidazole concentration of 50 mM. This lysate was loaded onto a column (6×8 cm) packed with Sepharose [Ni^++ charged]Chelation resin (Pharmacia) and pre-equilibrated with TBS pH 7.21 50 mM imidazole. After washing to baseline absorbance with equilibration buffer, the column was washed with one column volume of TBS pH 7.2 containing 90 mM imidazole. FXRαLBD was eluted directly with 365 mM imidazole. Column fractions were pooled and dialyzed against TBS, pH 7.2, containing 0.5 mM EDTA and 5 mM DTT. The dialyzed protein sample was concentrated using Centri-prep 10 K (Amicon) and subjected to size exclusion, using a column (3×90 cm) packed with Sepharose S-75 resin (Pharmacia) pre-equilibrated with TBS, pH 7.2, containing 0.5 mM EDTA and 5 mM DTT.
Purified FXRα LBD was desalted/buffer exchanged using PD-10 gel filtration columns into PBS [100 mM NaPhosphate, pH 7.2, 150 mM NaCl]. FXRα LBD was diluted to approximately 10 μM in PBS and five-fold molar excess of NHS-LC-Biotin (Pierce) was added in a minimal volume of PBS. This solution was incubated with gentle mixing for 30 minutes at room temperature. The biotinylation modification reaction was stopped by the addition of 2000× molar excess of Tris-HCl, pH 8. The modified FXRα LBD was dialyzed against 4 buffer changes, each of at least 50 volumes, PBS containing 5 mM DTT, 2 mM EDTA and 2% sucrose.
An EC50 of 1020 to 10000 nM was found for `COC(=O)c1ccc(S(=O)(=O)Nc2ccc(OCc3c(-c4c(Cl)cccc4Cl)noc3C(C)C)cc2)cc1` [Example 55, Methyl 4-{[(4-{[3-(2,6-dichlorophenyl)-5-isopropylisoxazol-4-yl]methoxy}phenyl)-amino]sulfonyl}benzoate] in this work.
`COC(=O)c1ccc(CN(C)c2ccc(OCc3c(-c4c(Cl)cccc4Cl)noc3C(C)C)cc2C)cc1` [Example 2, Methyl 4-[(4-{[3-(2,6-dichlorophenyl)-5-isopropyl-4-isoxazolyl]methoxy}-2-dimethylanilino)methyl]benzoate] was tested, and the EC50 was < 100 nM.
In the case of `Cc1cc(OCc2c(-c3c(Cl)cccc3Cl)noc2C(C)C)ccc1CSc1cccc(C(=O)O)c1` [Example 80, 3-[(4-{[3-(2,6-Dichlorophenyl)-5-isopropylisoxazol-4-yl]methoxy}-2-methylbenzyl)thio]-benzoic acid], the EC50 is reported as < 100 nM.
An EC50 of 102 to 1000 nM was found for `Cc1cc(OCc2c(-c3c(Cl)cccc3Cl)noc2C(C)C)ccc1OCc1cccc(C(=O)O)c1` [Example 102, 3-[(4-{[3-(2,6-Dichlorophenyl)-5-isopropylisoxazol-4-yl]methoxy}-2-methylphenoxy)-methyl]benzoic acid] in this work.
With `Cc1cc(OCc2c(-c3c(Cl)cccc3Cl)noc2C(C)C)ccc1N(C)S(=O)(=O)c1cccc(C(=O)O)c1` [Example 48, 3-{[(4-{[3-(2,6-Dichlorophenyl)-5-isopropylisoxazol-4-yl]methoxy}-2-methylphenyl)-(methyl)amino]sulfonyl}benzoic acid] the EC50 was < 100 nM.
An EC50 of 102 to 1000 nM was found for `Cc1cc(OCc2c(-c3c(Cl)cc(Cl)cc3Cl)noc2C(C)C)ccc1N(C)Cc1cccc(C(=O)O)c1` [Example 14, 3-{[(4-{[5-Isopropyl-3-(2,4,6-trichlorophenyl)isoxazol-4-yl]methoxy}-2-methylphenyl)-(methyl)amino]methyl}benzoic acid] in this work.
An EC50 of 102 to 1000 nM was found for `Cc1cc(OCc2c(-c3ccccc3OC(F)(F)F)noc2C(C)C)ccc1CSc1cccc(C(=O)O)c1` [Example 91, 3-{[4-({5-Isopropyl-3-[2-(trifluoromethoxy)phenyl]isoxazol-4-yl}methoxy)-2-methyl-benzyl]thio}benzoic acid] in this work.
An EC50 of 102 to 1000 nM was found for `CC(C)c1onc(-c2c(Cl)cccc2Cl)c1COc1ccc(N(C)S(=O)(=O)c2cccc(C(=O)O)c2)cc1` [Example 49, 3-{[(4-{[3-(2,6-Dichlorophenyl)-5-isopropylisoxazol-4-yl]methoxy}phenyl)(methyl)-amino]sulfonyl}benzoic acid] in this work.
An EC50 of 102 to 1000 nM was found for `COC(=O)c1cccc(S(=O)(=O)N(C)c2ccc(OCc3c(-c4c(Cl)cccc4Cl)noc3C(C)C)cc2C)c1` [Example 35, Methyl 3-{[(4-{[3-(2,6-dichlorophenyl)-5-isopropylisoxazol-4-yl]methoxy}-2-methylphenyl)(methyl)amino]sulfonyl}benzoate] in this work.
An EC50 of 102 to 1000 nM was found for `COC(=O)c1cccc(S(=O)(=O)N(C)c2ccc(OCc3c(-c4ccccc4OC(F)(F)F)noc3C(C)C)cc2C)c1` [Example 71, Methyl 3-{[[4-({5-isopropyl-3-[2-(trifluoromethoxy)phenyl]isoxazol-4-yl}methoxy)-2-methylphenyl](methyl)amino]sulfonyl}benzoate] in this work.
An EC50 of 102 to 1000 nM was found for `CC(C)c1onc(-c2c(Cl)cccc2Cl)c1COc1ccc(NS(=O)(=O)c2cccc(C(=O)O)c2)c(Cl)c1` [Example 46, 3-{[(2-Chloro-4-{[3-(2,6-dichlorophenyl)-5-isopropylisoxazol-4-yl]methoxy}phenyl)amino]sulfonyl}benzoic acid] in this work.
An EC50 of 102 to 1000 nM was found for `CC(C)c1onc(-c2ccccc2OC(F)(F)F)c1COc1ccc(CNc2cccc(C(=O)O)c2)c(Cl)c1` [Example 96, 3-{[2-Chloro-4-({5-isopropyl-3-[2-(trifluoromethoxy)phenyl]-4-isoxazolyl}methoxy)benzyl]amino}benzoic acid] in this work.
`CCN(c1ccc(OCc2c(-c3c(Cl)cccc3Cl)noc2C(C)C)cc1Cl)S(=O)(=O)c1cccc(C(=O)O)c1` [Example 50] was tested, and the EC50 was < 100 nM.
An EC50 of 102 to 1000 nM was found for `COC(=O)c1cccc(OCc2ccc(OCc3c(-c4ccccc4OC(F)(F)F)noc3C(C)C)cc2Cl)c1` [Example 83, Methyl 3-{[2-chloro-4-({5-isopropyl-3-[2-(trifluoromethoxy)-phenyl]isoxazol-4-yl}methoxy)benzyl]oxy}benzoate] in this work.
An EC50 of 1020 to 10000 nM was found for `COC(=O)c1ccc(COc2ccc(OCc3c(-c4c(Cl)cccc4Cl)noc3C(C)C)cc2C)cc1` [Example 98, Methyl 4-[(4-{[3-(2,6-dichlorophenyl)-5-isopropylisoxazol-4-yl]methoxy}-2-methylphenoxy)methyl]benzoate] in this work.
An EC50 of 102 to 1000 nM was found for `Cc1cc(OCc2c(-c3c(Cl)cccc3Cl)noc2C(C)C)ccc1N(C)Cc1ccc(C#N)cc1` [Example 9, 4-[(4-{[3-(2,6-Dichlorophenyl)-5-isopropyl-4-isoxazolyl]methoxy}-2-dimethylanilino)methyl]benzonitrile] in this work.
An EC50 of 102 to 1000 nM was found for `COC(=O)c1ccoc1CN(C)c1ccc(OCc2c(-c3c(Cl)cccc3Cl)noc2C(C)C)cc1C` [Example 6, Methyl 2-[(4-{[3-(2,6-dichlorophenyl)-5-isopropyl-4-isoxazolyl]methoxy}-2-dimethylanilino)methyl]-3-furoate] in this work.
An EC50 of 1020 to 10000 nM was found for `COC(=O)c1cccc(OCc2ccc(OCc3c(-c4ccccc4OC(F)(F)F)noc3C(C)C)cc2C)c1` [Example 84, Methyl 3-{[4-({5-isopropyl-3-[2-(trifluoromethoxy)phenyl]isoxazol-4-yl}methoxy)-2-methylbenzyl]oxy}benzoate] in this work.
In the case of `Cc1cc(OCc2c(-c3c(Cl)cccc3Cl)noc2C(C)C)ccc1N(C)Cc1ccc(C(=O)O)cc1` [Example 5, 4-[(4-{[3-(2,6-Dichlorophenyl)-5-isopropyl-4-isoxazolyl]methoxy}-2-dimethylanilino)methyl]benzoic acid], the EC50 is reported as < 100 nM.
An EC50 of 1020 to 10000 nM was found for `CCN(c1ccc(OCc2c(-c3c(Cl)cccc3Cl)noc2C(C)C)cc1)S(=O)(=O)c1ccc(C(=O)OC)cc1` [Example 61, Methyl 4-{[(4-{[3-(2,6-dichlorophenyl)-5-isopropylisoxazol-4-yl]methoxy}phenyl)-(ethyl)amino]sulfonyl}benzoate] in this work.
An EC50 of 102 to 1000 nM was found for `COC(=O)c1cccc(N(C)Cc2ccc(OCc3c(-c4c(Cl)cccc4Cl)noc3C(C)C)cc2Cl)c1` [Example 92, Methyl 3-[(2-chloro-4-{[3-(2,6-dichlorophenyl)-5-isopropylisoxazol-4-yl]methoxy}benzyl)(methyl)amino]benzoate] in this work.
An EC50 of 1020 to 10000 nM was found for `COC(=O)c1cccc(COc2ccc(OCc3c(-c4c(Cl)cccc4Cl)noc3C(C)C)cc2Cl)c1` [Example 99, Methyl 3-[(2-chloro-4-{[3-(2,6-dichlorophenyl)-5-isopropylisoxazol-4-yl]methoxy}-phenoxy)methyl]benzoate] in this work.
An EC50 of 102 to 1000 nM was found for `CCN(c1ccc(OCc2c(-c3c(Cl)cccc3Cl)noc2C(C)C)cc1C)S(=O)(=O)c1ccc(C(=O)O)cc1` [Example 66, 4-{[(4-{[3-(2,6-Dichlorophenyl)-5-isopropylisoxazol-4-yl]methoxy}-2-methylphenyl)-(ethyl)amino]sulfonyl}benzoic acid] in this work.
An EC50 of 102 to 1000 nM was found for `Cc1cc(OCc2c(Cc3c(Cl)cccc3Cl)noc2C2CC2)ccc1N(C)Cc1cccc(C(=O)O)c1` [Example 17, 3-[(4-{[5-Cyclopropyl-3-(2,6-dichlorobenzyl)-4-isoxazolyl]methoxy}-2-dimethylanilino)methyl]benzoic acid] in this work.
